Measurements published in ChEMBL document CHEMBL1201862, “PubChem BioAssay data set” (2004).
The source made the active and inactive calls.

How the values were obtained:
[1] = target: Aryl hydrocarbon receptor (Homo sapiens, UniProt P35869); assay: Luminescence-based cell-based high throughput dose response assay for activators of the Aryl Hydrocarbon Receptor (AHR). [Related pubchem assays: 2796 (Primary screen (AHR activators in singlicate)), 2845 (Confirmation screen (AHR activators in triplicate)), 434939 (Counterscreen (PXR activators in triplicate)), 2804 (Summary (AHR activators))]; type: ADME
[2] = target: T1, Ubiquitin-conjugating enzyme E2 N (Homo sapiens, UniProt P61088); type: functional;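 note: Dose-response confirmation in a TR-FRET assay detecting UBC13-driven polyubiquitin chain formation, inhibition measured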
T1 sequence (P61088 whole entry): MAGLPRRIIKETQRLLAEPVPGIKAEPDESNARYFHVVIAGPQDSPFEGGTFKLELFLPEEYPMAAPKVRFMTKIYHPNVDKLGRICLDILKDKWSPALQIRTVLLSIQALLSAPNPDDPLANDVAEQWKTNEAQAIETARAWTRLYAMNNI

[3] = cytotoxicity toward Colo320 cells – cell-based, CellTiter-Glo luminescence, IC50, dose response (AID 1117334); type: functional; conditions: COLO 320
[4] = HPDE-C7 pancreatic duct cell viability loss – fluorescence, HTS (AID 430); type: functional, cell-based; conditions: Homo sapiens
[5] = Reduced DLD-1 viability, concentration-response, CellTiter-Glo luminescence (AID 1117352); type: functional
[6] = cytotoxicity toward HT-29 cells – cell-based, CellTiter-Glo luminescence, IC50, dose response (AID 1117330); type: functional
[7] = Potency on glucagon-like peptide 1 release, dose-response in NCI-H716 cell line, half maximal inhibitory concentration (AID 1117344); type: functional, cell-based
[8] = viability of HCT116 lacking mutant beta-catenin – cell-based, human colon tumor, dose response (AID 1045); type: functional;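 note: HCT116 colon tumor cells with beta catenin knocked out; cells exposed to compound for 60 hours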
[9] = viability of PTEN-deleted HCT116 cells – cell-based, HCT116 PTEN knockout, dose response (AID 1047); type: functional;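 note: HCT116 colon tumor cells with PTEN knocked out; cells exposed to compound for 60 hours before readout; potency for loss of cell viability measured by luminescence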
[10] = RKO cell viability reduction, dose response, CellTiter-Glo luminescence (AID 1117322); type: functional
[11] = HCT116 cell viability decrease, GSK3B pretreatment – CellTiter-Glo, IC50, dose response (AID 1117339); type: functional; conditions: HCT-116
[12] = cytotoxicity toward HCT116 cells – cell-based, CellTiter-Glo luminescence, IC50, dose response (AID 1117332); type: functional; conditions: HCT-116
[13] = SNU-C1 cell viability reduction, dose response, CellTiter-Glo luminescence (AID 1117323); type: functional, cell-based
[14] = viability loss of HPDE-C7K cells – cell-based, fluorescence, HTS, primary screen (AID 431); type: functional; conditions: Homo sapiens
[15] = glucagon-like peptide-1 release potency in STC-1, concentration-response, half-maximal inhibitory concentration in the STC-1 line (AID 1117345); type: functional, cell-based
[16] = CellTiter-Glo luminescence survival assay, SW480 colon tumor line, concentration-response curve, half-maximal inhibitory concentration (AID 1117338); type: functional
[17] = target: T2, Mannose-6-phosphate isomerase (Homo sapiens, UniProt P34949); assay: MPI inhibition at elevated mannose 6-phosphate – biochemical, fluorescence intensity, high mannose 6-phosphate, primary screen (AID 1220)
T2 sequence (P34949 whole entry): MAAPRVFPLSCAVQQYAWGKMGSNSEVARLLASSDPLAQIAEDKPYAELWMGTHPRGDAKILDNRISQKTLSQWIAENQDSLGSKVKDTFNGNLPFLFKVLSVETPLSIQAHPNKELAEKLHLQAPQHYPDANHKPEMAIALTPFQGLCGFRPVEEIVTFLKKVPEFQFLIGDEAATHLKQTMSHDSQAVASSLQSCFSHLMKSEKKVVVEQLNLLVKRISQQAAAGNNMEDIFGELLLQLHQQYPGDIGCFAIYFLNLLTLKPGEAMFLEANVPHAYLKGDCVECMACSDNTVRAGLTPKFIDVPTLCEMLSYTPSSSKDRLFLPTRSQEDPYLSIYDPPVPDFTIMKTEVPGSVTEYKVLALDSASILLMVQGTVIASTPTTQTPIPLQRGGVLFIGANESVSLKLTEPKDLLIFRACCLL

[18] = target: T2, Mannose-6-phosphate isomerase; assay: MPI enzyme activity inhibition – biochemical, fluorescence intensity, coupled assay, primary screen (AID 1209)
[19] = target: T3, Replicative DNA helicase DnaB (Mycobacterium tuberculosis, UniProt P9WMR3); assay: DnaB intein splicing inhibitors, dose response, biochemical, cell-free fluorescence (AID 449749); type: functional
T3 sequence (P9WMR3 whole entry): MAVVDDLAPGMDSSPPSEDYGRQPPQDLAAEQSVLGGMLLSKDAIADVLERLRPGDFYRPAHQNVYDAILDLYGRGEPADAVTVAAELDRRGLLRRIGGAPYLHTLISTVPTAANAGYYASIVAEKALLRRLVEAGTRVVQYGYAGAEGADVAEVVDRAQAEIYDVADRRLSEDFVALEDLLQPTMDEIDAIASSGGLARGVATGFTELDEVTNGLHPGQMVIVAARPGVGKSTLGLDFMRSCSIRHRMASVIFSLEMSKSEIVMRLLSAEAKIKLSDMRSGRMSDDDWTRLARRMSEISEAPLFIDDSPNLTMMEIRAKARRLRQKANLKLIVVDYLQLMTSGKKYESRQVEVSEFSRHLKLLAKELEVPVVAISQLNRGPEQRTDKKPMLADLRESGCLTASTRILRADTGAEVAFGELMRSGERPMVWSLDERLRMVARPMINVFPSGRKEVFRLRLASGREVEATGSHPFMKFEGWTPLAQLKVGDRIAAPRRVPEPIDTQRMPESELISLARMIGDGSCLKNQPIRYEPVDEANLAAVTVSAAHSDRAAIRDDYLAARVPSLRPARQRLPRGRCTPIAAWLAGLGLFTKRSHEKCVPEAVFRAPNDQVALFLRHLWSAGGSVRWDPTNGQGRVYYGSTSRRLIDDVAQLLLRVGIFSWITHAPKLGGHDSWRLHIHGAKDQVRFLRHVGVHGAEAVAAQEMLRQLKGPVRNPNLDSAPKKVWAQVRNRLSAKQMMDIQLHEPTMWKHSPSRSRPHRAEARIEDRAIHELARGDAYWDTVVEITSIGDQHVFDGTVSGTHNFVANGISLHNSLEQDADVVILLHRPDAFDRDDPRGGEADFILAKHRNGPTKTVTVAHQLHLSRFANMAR

Protein RecA = target: T4, Protein RecA (Mycobacterium tuberculosis, UniProt P9WHJ3); assay: Fluorescence Cell-Free Homogeneous Dose Retest to Identify Inhibitors of RecA-Intein Splicing Activity. [Related pubchem assays (depositor defined):AID2097, AID2223, AID489010, AID492950]; type: functional
T4 sequence (P9WHJ3 whole entry): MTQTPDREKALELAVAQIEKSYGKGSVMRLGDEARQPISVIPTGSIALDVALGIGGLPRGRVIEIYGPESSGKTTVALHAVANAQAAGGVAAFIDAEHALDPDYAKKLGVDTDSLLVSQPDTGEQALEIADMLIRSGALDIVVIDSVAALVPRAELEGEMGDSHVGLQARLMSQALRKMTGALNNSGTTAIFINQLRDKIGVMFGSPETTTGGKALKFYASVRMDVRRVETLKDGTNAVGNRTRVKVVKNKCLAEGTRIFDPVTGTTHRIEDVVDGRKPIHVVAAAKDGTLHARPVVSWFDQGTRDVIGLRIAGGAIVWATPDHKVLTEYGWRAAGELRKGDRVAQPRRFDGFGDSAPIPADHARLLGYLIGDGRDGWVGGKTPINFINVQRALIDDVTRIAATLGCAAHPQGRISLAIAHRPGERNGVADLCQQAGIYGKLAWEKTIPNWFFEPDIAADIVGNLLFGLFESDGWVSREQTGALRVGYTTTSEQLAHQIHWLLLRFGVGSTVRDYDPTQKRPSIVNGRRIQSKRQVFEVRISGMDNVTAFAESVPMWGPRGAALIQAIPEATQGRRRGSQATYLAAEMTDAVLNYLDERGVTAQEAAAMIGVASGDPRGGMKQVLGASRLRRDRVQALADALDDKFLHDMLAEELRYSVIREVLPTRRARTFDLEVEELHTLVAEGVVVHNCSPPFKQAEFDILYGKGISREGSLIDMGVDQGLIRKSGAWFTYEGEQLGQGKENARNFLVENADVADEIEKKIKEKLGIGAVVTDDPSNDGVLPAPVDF

Genome polyprotein = Genome polyprotein (dengue virus type 2, UniProt P29990); assay: flavivirus cap methylation enzyme inhibition – biochemical, confirmation dose response, primary screen (AID 588689); type: functional
[20] = Luminescence Cell-Based Dose Response to Identify Activators of Luciferase Translation or Activity in H4-C Neuroglioblastoma Cells. [Related pubchem assays: 1829 (Project Summary), 1814 (Primary HTS)]; type: functional
[21] = Luminescence Cell-Based Dose Response HTS to Identify Activators of Luciferase Translation or Activity in H4 […] Cells. [Related pubchem assays: 1829 (Project Summary), 1814 (Primary HTS)]; type: functional
[22] = Luminescence Cell-Based Dose Response to Identify Activators of 5'UTR Stem-Loop Driven Prion Protein mRNA Translation in H4-C Neuroglioblastoma Cells. [Related pubchem assays: 1829 (Project Summary), 1814 (Primary HTS)]; type: functional
H4 = assay: Luminescence Cell-Based Dose Response HTS to Identify Activators of 5'UTR Stem-Loop Driven Prion Protein mRNA Translation in H4 Neuroglioblastoma Cells. [Related pubchem assays: 1829 (Project Summary), 1814 (Primary HTS)]; type: functional; conditions: Homo sapiens
[23] = Luminescence Cell-Based Dose Confirmation to Identify Activators of 5'UTR Stem-Loop Driven Alpha-Synuclein mRNA Translation in H4 Neuroglioblastoma Cells. [Related pubchem assays: 1829 (Project Summary), 1814 (Primary HTS)]; type: functional
[24] = target: T5, Dual specificity protein phosphatase 6 (Rattus norvegicus, UniProt Q64346); assay: inhibition of rat DUSP6 enzyme activity – biochemical, in vitro, primary screen (AID 425)
T5 sequence (Q64346 whole entry): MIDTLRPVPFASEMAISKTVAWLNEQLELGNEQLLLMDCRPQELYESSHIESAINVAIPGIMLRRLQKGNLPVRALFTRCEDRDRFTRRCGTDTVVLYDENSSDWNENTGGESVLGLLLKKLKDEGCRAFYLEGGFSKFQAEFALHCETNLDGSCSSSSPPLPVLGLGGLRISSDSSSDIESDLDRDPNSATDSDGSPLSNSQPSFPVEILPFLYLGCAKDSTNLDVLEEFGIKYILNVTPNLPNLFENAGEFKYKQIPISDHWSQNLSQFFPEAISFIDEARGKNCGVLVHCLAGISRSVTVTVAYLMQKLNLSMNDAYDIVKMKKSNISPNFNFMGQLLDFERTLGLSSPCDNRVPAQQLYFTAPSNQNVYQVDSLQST

Estrogen receptor beta [25] = target: T6, Estrogen receptor beta (Homo sapiens, UniProt Q92731); assay: blockers of SRC-3 recruitment to ERβ – biochemical, ELISA, streptavidin-HRP readout, orthogonal assay, confirmation (AID 1060)
Estrogen receptor beta [26] = target: T6, Estrogen receptor beta

T6 sequence (Q92731 whole entry): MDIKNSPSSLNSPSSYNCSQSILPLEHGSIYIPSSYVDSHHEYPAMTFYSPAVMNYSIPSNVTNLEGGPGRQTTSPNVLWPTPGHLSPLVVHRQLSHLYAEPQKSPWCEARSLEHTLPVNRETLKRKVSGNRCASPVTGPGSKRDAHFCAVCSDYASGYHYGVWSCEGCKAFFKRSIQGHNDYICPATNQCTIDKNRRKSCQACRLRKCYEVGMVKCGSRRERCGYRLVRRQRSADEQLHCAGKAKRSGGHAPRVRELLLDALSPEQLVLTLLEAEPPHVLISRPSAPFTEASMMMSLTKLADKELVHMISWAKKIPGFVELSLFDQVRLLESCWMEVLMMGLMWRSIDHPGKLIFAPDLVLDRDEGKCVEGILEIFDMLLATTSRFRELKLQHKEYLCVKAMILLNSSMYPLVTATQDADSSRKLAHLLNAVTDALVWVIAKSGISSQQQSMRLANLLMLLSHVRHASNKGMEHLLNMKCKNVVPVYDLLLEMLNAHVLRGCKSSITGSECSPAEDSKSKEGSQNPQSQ
Chain of Aryl hydrocarbon receptor (P35869 whole entry): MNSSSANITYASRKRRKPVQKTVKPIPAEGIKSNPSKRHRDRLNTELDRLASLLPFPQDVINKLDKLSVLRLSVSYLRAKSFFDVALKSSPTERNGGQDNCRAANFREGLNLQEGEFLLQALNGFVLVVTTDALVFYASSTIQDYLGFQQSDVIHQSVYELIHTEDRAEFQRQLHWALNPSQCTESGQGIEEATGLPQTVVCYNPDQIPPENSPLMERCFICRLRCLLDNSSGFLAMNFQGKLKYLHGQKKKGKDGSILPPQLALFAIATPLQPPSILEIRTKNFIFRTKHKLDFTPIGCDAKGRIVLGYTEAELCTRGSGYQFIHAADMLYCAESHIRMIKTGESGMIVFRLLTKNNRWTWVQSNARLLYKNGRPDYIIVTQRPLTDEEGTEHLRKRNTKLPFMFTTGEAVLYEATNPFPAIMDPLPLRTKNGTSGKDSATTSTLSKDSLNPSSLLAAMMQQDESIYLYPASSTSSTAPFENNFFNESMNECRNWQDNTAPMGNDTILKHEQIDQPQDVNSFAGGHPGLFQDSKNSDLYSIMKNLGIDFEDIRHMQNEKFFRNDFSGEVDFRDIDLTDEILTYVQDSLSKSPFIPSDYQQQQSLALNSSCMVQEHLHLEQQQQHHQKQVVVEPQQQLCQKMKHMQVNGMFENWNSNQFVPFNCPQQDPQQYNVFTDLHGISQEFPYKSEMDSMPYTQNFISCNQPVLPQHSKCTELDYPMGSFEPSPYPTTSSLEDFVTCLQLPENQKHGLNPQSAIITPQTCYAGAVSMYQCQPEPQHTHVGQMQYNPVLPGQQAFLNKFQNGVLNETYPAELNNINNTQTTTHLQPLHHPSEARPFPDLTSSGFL
Chain of Genome polyprotein (P29990 2492-3391 limits assumed): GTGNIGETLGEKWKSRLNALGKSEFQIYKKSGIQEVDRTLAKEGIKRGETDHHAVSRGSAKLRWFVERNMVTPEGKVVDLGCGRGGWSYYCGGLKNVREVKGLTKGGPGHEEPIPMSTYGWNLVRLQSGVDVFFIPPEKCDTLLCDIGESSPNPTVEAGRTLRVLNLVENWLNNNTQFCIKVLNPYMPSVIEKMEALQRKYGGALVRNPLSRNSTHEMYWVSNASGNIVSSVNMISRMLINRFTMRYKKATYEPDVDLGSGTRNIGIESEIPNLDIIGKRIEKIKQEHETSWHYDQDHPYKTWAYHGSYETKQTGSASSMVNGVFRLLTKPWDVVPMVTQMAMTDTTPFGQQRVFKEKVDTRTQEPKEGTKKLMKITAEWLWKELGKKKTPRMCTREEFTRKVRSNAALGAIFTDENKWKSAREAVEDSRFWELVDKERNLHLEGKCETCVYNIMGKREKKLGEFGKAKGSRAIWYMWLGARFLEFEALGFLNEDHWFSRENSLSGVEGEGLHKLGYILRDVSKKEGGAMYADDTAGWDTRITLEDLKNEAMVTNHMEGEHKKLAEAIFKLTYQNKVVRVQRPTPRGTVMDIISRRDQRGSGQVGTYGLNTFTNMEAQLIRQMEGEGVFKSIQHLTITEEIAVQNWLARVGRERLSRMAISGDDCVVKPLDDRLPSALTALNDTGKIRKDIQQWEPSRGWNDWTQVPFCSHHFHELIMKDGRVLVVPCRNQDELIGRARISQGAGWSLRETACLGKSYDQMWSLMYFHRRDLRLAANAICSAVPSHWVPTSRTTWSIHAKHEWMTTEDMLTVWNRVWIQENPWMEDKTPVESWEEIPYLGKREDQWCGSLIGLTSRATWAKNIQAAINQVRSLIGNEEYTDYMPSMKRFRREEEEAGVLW

## O=C(Nc1cccc(Cl)c1)c1ccc(O)nn1
[1]
  EC50: 3.4 µM (active)

## CN1CCN(CCCN2c3ccccc3Sc3ccc(C(F)(F)F)cc32)CC1
[2]
  IC50: > 20 µM (inactive)
[3]
  IC50: 2.36 µM (active)
[4]
  EC50: 11.9 µM (active)
[5]
  IC50: 7.35 µM (inactive)
[6]
  IC50: 2.81 µM (active)
[7]
  IC50: > 40 µM (inactive)
[8]
  EC50: 11.7 µM (active)
[9]
  EC50: 11.9 µM (active)
[10]
  IC50: 0.565 µM (active)
[11]
  IC50: 3.23 µM (active)
[12]
  IC50: 7.22 µM (inactive)
[13]
  IC50: 2.63 µM (active)
[14]
  EC50: 7.72 µM (active)
[15]
  IC50: > 40 µM (inactive)
[16]
  IC50: 2.72 µM (active)

## Cn1c(/N=C/c2c(O)ccc3ccccc23)nc2ccccc21
[17]
  IC50: 14.8 µM (active)
[18]
  IC50: > 50 µM (not active)
[19]
  AC50: 7.16 µM (active)
Protein RecA
  EC50: 5.19 µM (active)
Genome polyprotein
  IC50: 9.6 µM (active)

## O=C(Nc1ccc2c(c1)OCO2)c1ccncc1
[1]
  EC50: 25.3 µM (not active)

## CCCCSc1nc2c(cnn2-c2ccccc2)c(=O)n1N
[20]
  EC50: 0.347 µM (active)
[21]
  EC50: < 0.1 µM (active)
[22]
  EC50: 0.348 µM (active)
H4
  EC50: > 120 µM (not active)
[23]
  EC50: 0.646 µM (active)

## O=C1CC(c2ccccc2)c2cc(O)ccc2O1 (centres undefined)
[8]
  EC50: 34.8 µM (active)
[24]
  IC50: > 100 µM (not active)
[9]
  EC50: 32 µM (active)

## CC1(C)Oc2ccc3ccc(=O)oc3c2-c2cnoc21
[17]
  IC50: > 50 µM (not active)
[18]
  IC50: > 50 µM (not active)

## CCOC(=O)Cn1cnc2sc3c(c2c1=O)CCC3
Estrogen receptor beta [25]
  IC50: 106 µM (not active)
Estrogen receptor beta [26]
  IC50: 3.62 µM (active)
